“Also recorded” adds a separate entry of the source.
Assays:
[1] = system: bovine pigmented ciliary epithelial (PE) cells; experiment: Cell volume (shrinkage) of PE cells in isoosmotic suspension, Coulter Counter; type: cell-based; conditions: for effect of estradiol on shrinkage produced by ATP and tamoxifen: 100 nM estradiol; for effect of estradiol on cell volume in the absence of tamoxifen: 100 nM, FIG. 16B; for effect of PKC modulator on cell volume in the presence of ATP: 0.3 μM staurosporine, 250 μM DiC8; for shrinkage by agent in the presence or absence of ATP / effect of agent on shrinkage in the presence of ATP: 10 μM agent; for shrinkage by agent in the presence or absence of ATP: with or without 100 μM ATP
human A3 receptor = biological target: T1, human A3 receptor (Homo sapiens, UniProt P0DMS8); experiment: Radioligand binding, [125I]AB-MECA, HEK-293 cell membranes; design: host or cells: HEK-293; conditions: read-out: Ki(hA3)
T1 sequence (P0DMS8 1-318): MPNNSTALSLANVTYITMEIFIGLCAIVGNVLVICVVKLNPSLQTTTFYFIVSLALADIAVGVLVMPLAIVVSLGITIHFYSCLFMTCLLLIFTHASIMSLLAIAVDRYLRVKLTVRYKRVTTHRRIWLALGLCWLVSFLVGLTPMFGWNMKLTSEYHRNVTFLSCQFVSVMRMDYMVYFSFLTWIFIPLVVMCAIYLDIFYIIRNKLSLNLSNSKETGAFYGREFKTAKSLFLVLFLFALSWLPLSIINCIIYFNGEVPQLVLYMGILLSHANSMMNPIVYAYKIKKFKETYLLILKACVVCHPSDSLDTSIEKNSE
Method: Natl. Acad. Sci. […] Natl. Acad. Sci. U.S.A. 89:7432-7436, 1992) was performed as described at 4° C. (Olah et al., Mol. Pharmacol. 45:978-982, 1994). The assay medium consisted of a buffer containing 10 mM Mg^2+, 50 mM Tris, 3 units/mL adenosine deaminase, and 1 mM EDTA, at pH 8.0 (4° C.). […] Incubations were terminated by rapid filtration over Whatman GF/B filters, using a Brandell cell harvester (Brandell, Gaithersburg, MD). The tubes were rinsed three times with 3 mL buffer each. At least five different concentrations of competitor, spanning 3 orders of magnitude adjusted appropriately for the IC50 of each compound, were used. IC50 values, calculated with the nonlinear regression method implemented in the InPlot program (Graph-PAD, San Diego, Calif.), were converted to apparent Ki values using the Cheng-Prusoff equation (Cheng et al., Biochem.

[2] = system: HCE (human ciliary epithelial) cell line, NPE cells; experiment: Cell volume (shrinkage) of NPE cells in isosmotic solution, Coulter Counter, 5 μM gramicidin; type: cell-based
Method: A 0.5-ml aliquot of the HCE cell suspension in DMEM was added to 20 ml of each test solution, which contained (in mM): 110.0 NaCl, 15.0HEPES [4-(2-hydroxyethyl)-1-piperazineethanesulfonic acid], 2.5 CaCl2, 1.2 MgCl2, 4.7 KCl, 1.2 KH2PO4, 30.0 NaHCO3, and 10.0 glucose, at a pH of 7.4 and osmolality of 298-305 mOsm. Parallel aliquots of cells were studied on the same day. One aliquot usually served as a control, and the others were exposed to different experimental conditions at the time of suspension. The same amount of solvent vehicle (dimethylformamide, DMSO or ethanol) was always added to the control and experimental aliquots. The sequence of studying the suspensions was varied to preclude systematic time-dependent artifacts (Civan et al., Exp. Eye Res. 54:181-191, 1992).
Cell volumes of isosmotic suspensions were measured with a Coulter Counter (model ZBI-Channelyzer II), using a 100-μm aperture (Civan et al., supra., 1994). As previously described (Wax et al., supra., 1993), the cell volume (vC) of the suspension was taken as the peak of the distribution function. Cell shrinkage was fit as a function of time (t) to a monoexponential function:
vC=v∞+(v0−v∞)−[e^−(t−t^0^)/τ] {1}
where v∞ is the steady-state cell volume, v0 is the cell volume at the first point (t0) of the time course to be fit, and τ is the time constant of the shrinkage. For purposes of data reduction, the data were normalized to the first time point, taken to be 100% isotonic volume. Fits were obtained by nonlinear least-squares regression analysis, permitting both v∞and τ to be variables.
In order to differentiate among these receptors, the experiments were repeated in the present study using a series of agonists and antagonists selective for these receptors. As we wished to identify the effects of these receptors specifically on Cl^− channels, 5 μM gramicidin D was included in all solutions to eliminate any potential contribution from K^+ channels. This ionophore readily partitions into plasma membranes to form a cation-selective pore, and is widely used for studying volume regulation (Hoffmann et al., in Interaction of Cell Volume and Cell Function, Lang et al., eds., Springer, Heidelberg, Germany, pp. 188-248, (ACEP Series 14), 1993)). Under these conditions, release of cell Cl^− becomes the rate-limiting factor in both hypo-(Civan et al., Exp. Eye Res. 54:181-191, 1992) and isoosmotic cell shrinkage (Carre et al., supra., 1997).

[3] = 10 μM trifluoperazine alone, FIG. 14B
[4] = 100 μM ATP + 10 μM TMX + 10 μM trifluoperazine, FIG. 14A
[5] = 100 μM ATP + 10 μM agent, FIG. 14A
[6] = 100 μM ATP + 10 μM trifluoperazine, FIG. 14B
[7] = 100 μM ATP + 10 μM agent, FIG. 13A
[8] = FIG. 2D, 100 nM Cl-IB-MECA, IB-MECA in parallel

## C[C@]12CC[C@@H]3c4ccc(O)cc4CC[C@H]3[C@@H]1CC[C@H]2O [17α-estradiol]
[1]; 100 μM ATP, 10 μM tamoxifen
  effect of estradiol on shrinkage produced by ATP and tamoxifen: no significant effect
[1]
  effect of estradiol on cell volume in the absence of tamoxifen: very small effects

## CCCOC(=O)c1c(CC)c(C(=O)SCC)c(CC)[n+](C)c1-c1ccccc1 [Compound 15, 1-Methyl-2-ethyl-4-ethyl-3-(ethylsulfanylcarbonyl)-5-propyloxycarbonyl-6-phenylpyridinium Iodide]
Human A3 receptor
  Ki: 483 nM

## CCSC(=O)c1c(CC)c(C(=O)OCCF)c(-c2ccccc2)[n+](C)c1CC [Compound 14]
Human A3 receptor
  Ki: 364 nM

## CN[C@@H]1C[C@H]2O[C@@](C)([C@@H]1OC)n1c3ccccc3c3c4c(c5c6ccccc6n2c5c31)C(=O)NC4 [staurosporine]
[1]; 100 μM ATP
  effect of PKC modulator on cell volume in the presence of ATP: small, insignificant shrinkage

## CCCOC(=O)c1c(CCC)c(C(=O)SCCCF)c(CC)[n+](C)c1-c1ccccc1 [Compound 17, 1-Methyl-2-ethyl-4-propyl-3-(3-fluoropropylsulfanylcarbonyl)-5-propyloxycarbonyl-6-phenylpyridinium Iodide]
Human A3 receptor
  Ki: 465 nM

## CCCOC(=O)c1c(CCC)c(C(=O)SCC)c(CC)[n+](C)c1-c1ccccc1 [Compound 16, 1-Methyl-2-ethyl-4-propyl-3-(ethylsulfanylcarbonyl)-5-propyloxycarbonyl-6-phenylpyridinium Iodide]
Human A3 receptor
  Ki: 2020 nM

## CCC[n+]1c(CC)c(C(=O)SCC)c(CC)c(C(=O)OCC)c1-c1ccccc1 [Compound 13, 1-Propyl-2,4-diethyl-3-(ethylsulfanylcarbonyl)-5-ethyloxycarbonyl-6-phenylpyridinium Iodide]
Human A3 receptor
  Ki: 1350 nM

## CCOC(=O)c1c(CC)c(C(=O)SCC)c(C)[n+](C)c1-c1ccccc1 [Compound 10, 1-Methyl-2-methyl-4-ethyl-3-(ethylsulfanylcarbonyl)-5-ethyloxycarbonyl-6-phenylpyridinium Iodide]
Human A3 receptor
  Ki: 379 nM

## CCCOC(=O)c1c(CCC)c(C(=O)SCC)c(CCOCc2ccccc2)[n+](C)c1-c1ccccc1 [Compound 22, 1-Methyl-2-(2-benzyloxylethyl)-4-propyl-3-(ethylsulfanylcarbonyl)-5-propyloxycarbonyl-6-phenylpyridinium Iodide]
Human A3 receptor
  Ki: 348 nM

## CCOC(=O)c1c(CC)c(C(=O)SCC)c(CC)[n+](CC)c1-c1ccccc1 [Compound 12, 1-Ethyl-2,4-diethyl-3-(ethylsufanylcarbonyl)-5-ethyloxycarbonyl-6-phenylpyridinium Iodide]
Human A3 receptor
  Ki: 577 nM

## CCOC(=O)c1c(CC)c(C(=O)SCC)c(C2CCC2)[n+](C)c1-c1ccccc1 [Compound 21, 1-Methyl-2-cyclobutyl-4-ethyl-3-(ethylsulfanylcarbonyl)-5-ethyloxycarbonyl-6-phenyl pyridinium Iodide]
Human A3 receptor
  Ki: 1410 nM

## OC[C@H]1O[C@@H](n2cnc3c(NC4CCCC4)ncnc32)[C@H](O)[C@@H]1O [CPA, N^6-cyclopentyladenosine]
[2]; 30 nM agonist
  effect of adenosine-receptor agonist on isoosmotic volume: no significant shrinkage
[2]; 100 nM agonist
  effect of adenosine-receptor agonist on isoosmotic volume: small slow effect of uncertain significance; also recorded: little effect
[2]; 1 μM agonist
  effect of adenosine-receptor agonist on isoosmotic volume: no significant shrinkage
[2]; 3 μM agonist
  effect of adenosine-receptor agonist on isoosmotic volume: no significant shrinkage; also recorded: none at all

## CCOC(=O)c1c(CCN2C(=O)c3ccccc3C2=O)c(C(=O)SCC)c(CC)[n+](C)c1-c1ccccc1 [Compound 19]
Human A3 receptor
  Ki: 1250 nM

## CCCCCCCC(=O)OCC(CO)OC(=O)CCCCCCC (centres unmarked) [DiC8]
[1]; 100 μM ATP
  effect of PKC modulator on cell volume in the presence of ATP: no significant effect

## CN1CCN(CCCN2c3ccccc3Sc3ccc(C(F)(F)F)cc32)CC1 [trifluoperazine]
[1]
  shrinkage by agent in the presence or absence of ATP: the same, whether or not ATP was present; also recorded: reduced cell volume on their own
[1]; [3]
  steady-state cell volume (v∞): 96.8±0.2%
  time constant of the shrinkage (τ): 0.9 ± 0.6 min
[1]; 10 μM trifluoperazine, 100 μM ATP
  effect of trifluoperazine on shrinkage produced by ATP alone: enhanced the shrinkage produced by ATP alone
[1]; 10 μM trifluoperazine, 100 μM ATP, 10 μM tamoxifen
  effect of trifluoperazine on the response to ATP+TMX: reduced the response
[1]; [4]
  steady-state cell volume (v∞): 95.7±0.4%
  time constant of the shrinkage (τ): 3.9 ± 1.2 min
[1]; [5]
  steady-state cell volume (v∞): 96.2±0.3%
  time constant of the shrinkage (τ): 6.8 ± 1.4 min
[1]; [6]
  steady-state cell volume (v∞): 96.7±0.3%
  time constant of the shrinkage (τ): 0.5 ± 1.5 min

## C[C@]12CC[C@@H]3c4ccc(O)cc4CC[C@H]3[C@@H]1CC[C@@H]2O [17β-estradiol]
[1]; 100 nM 17β-estradiol, 100 μM ATP
  effect of estradiol together with ATP on cell volume: small and slow shrinkage
[1]; 100 μM ATP, 10 μM tamoxifen
  effect of estradiol on shrinkage produced by ATP and tamoxifen: reduced; also recorded: significantly inhibited
[1]
  effect of estradiol on cell volume in the absence of tamoxifen: very small effects

## C[N+](C)(C)CCOC(N)=O [carbachol]
[1]; 100 μM ATP, FIG. 13A
  effect of agent on shrinkage in the presence of ATP: did trigger a prompt shrinkage; also recorded: enhanced shrinkage
[1]
  shrinkage by agent in the presence or absence of ATP: nearly the same degree of shrinkage in the presence or absence of 100 μM ATP; also recorded: reduced cell volume on their own
[1]; [7]
  steady-state cell volume (v∞): 94.2±0.4%
  time constant of the shrinkage (τ): 5.6 ± 1.2 min

## CNC(=O)[C@H]1O[C@@H](n2cnc3c(NCc4cccc(I)c4)nc(Cl)nc32)[C@H](O)[C@@H]1O [Cl-IB-MECA]
[2]; [8]
  steady-state cell volume (V∞): 97.9±0.2%
  time constant of the shrinkage (τ): 2.5 ± 1.3 min

## CCNC(=O)[C@H]1O[C@@H](n2cnc3c(N)nc(NCCc4ccc(CCC(=O)O)cc4)nc32)[C@H](O)[C@@H]1O [CGS-21680, 2-[4-[(2-carboxyethyl)phenyl]ethylamino]-5′-N-ethylcarbamoyladenosine]
[2]; 100 nM agonist
  effect of adenosine-receptor agonist on isoosmotic volume: no detectable effect
[2]; 3 μM agonist
  effect of adenosine-receptor agonist on isoosmotic volume: triggered isoosmotic shrinkage

## O=S(=O)(O)c1cc(N=C=S)ccc1C=Cc1ccc(N=C=S)cc1S(=O)(=O)O [DIDS, 4,4′-diisothiocyano-2,2′-disulfonic acid]
[1]; DIDS 500 μM, NPPB 100 μM
  effect of Cl− channel blocker on ATP, tamoxifen-activated shrinkage: inhibited the volume reduction; also recorded: reduced

## NCCc1c[nH]cn1 [histamine]
[1]; 100 μM ATP, FIG. 13A
  effect of agent on shrinkage in the presence of ATP: did not enhance the volumetric response
[1]; [7]
  steady-state cell volume (v∞): 97.4±0.5%
  time constant of the shrinkage (τ): 21.0 ± 8.0 min
